Structures can show the parent of a compound that is named as a salt. Where two headings read alike, the source gives them in different places.
Columns and labels:
GTP-KRAS-WT:SOS1 = GTP-KRAS-WT:SOS1 (Homo sapiens (Human), UniProt P01116); experiment: KRAS_WT and SOS1 binding inhibition (KRAS-WT/SOS1 binding kit, 665/615 ratio); settings: GTP 10 μM
Excerpt: To detect the inhibitory capability of small molecule compounds on the binding activity between KRAS_WT and SOS1 using a drug screening system based on the binding of KRAS_WT and SOS1 interaction.
a) BI-2852 was used as a positive control, with its stock solution as the first dilution point, followed by a 3-fold dilution, making a total of 10+0 dilutions. Similarly, the first dilution point of the test compounds was also their respective stock solutions, followed by a 3-fold dilution, making a total of 11+0 dilutions. Using Echo, 0.2 μL of the gradient-diluted compound solutions were transferred into a 384-well plate, with each compound tested in duplicate. The final DMSO concentration was 1%. The plate was centrifuged at 1000 rpm for 1 minute. The final concentrations of the positive controls were 100, 33.33, 11.11, 3.70, 1.23, 0.412, 0.137, 0.046, 0.015, 0.005, and 0 μM. The final concentrations of the test compounds were […], 0.01, and 0 μM.
b) KRAS_WT from the kit was prepared with GTP at a final concentration of 10 μM in the dilution buffer, and 5 μL was transferred into the 384-well reaction plate. The plate was centrifuged at 1000 rpm for 1 minute.
c) Subsequently, 5 μL of the SOS1 mixture was transferred into the 384-well reaction plate. The plate was centrifuged at 1000 rpm for 1 minute and incubated at 25° C. for 15 minutes.
d) 10 μL of the detection mixture was transferred into the 384-well reaction plate. The plate was centrifuged at 1000 rpm for 1 minute and incubated overnight at 4° C.
e) The […] and emission wavelength at 615 nm were read using an Envision multimode plate reader. The 665/615 ratio signal intensity was used to characterize the enzyme activity.
(§1) The IC50 of the compounds was fitted using a nonlinear regression equation with GraphPad Prism 8. The results are presented in Table 2: • Negative control: DMSO • Positive control: 100 μM BI-2852
(§2) The following nonlinear fitting formula was used to obtain the IC50 (half-maximal inhibitory concentration) of the compounds:
(§3) [formula] • X: logarithm of the compound concentration • Y: 665/615 Ratio

GTP-KRAS-G12D:CRAF = GTP-KRAS-G12D:CRAF (Homo sapiens (Human), UniProt P01116, G12D); experiment: GTP-KRAS-G12D:CRAF binding inhibition
Protocol: The IC50 of the compounds was fitted using a nonlinear regression equation with GraphPad Prism 8. The results are presented in Table 2: • Negative control: DMSO • Positive control: 100 μM BI-2852 The following nonlinear fitting formula was used to obtain the IC50 (half-maximal inhibitory concentration) of the compounds: [formula] • X: logarithm of the compound concentration • Y: 665/615 Ratio

GTP-KRAS-G12D:SOS1 = GTP-KRAS-G12D:SOS1 (Homo sapiens (Human), UniProt P01116, G12D); experiment: GTP-KRAS-G12D:SOS1 binding inhibition
Protocol: as §1, §2, §3

[1] = system: Panc-1 (KRASG12D pancreatic cancer cell) CDX model; format: in vivo, Nu/Nu nude mice
Protocol: Female Nu/Nu nude mice, approximately 8 to 10 weeks old, (Beijing Vital River Laboratory Animal Technology Co., Ltd) were used in these studies. The animals were maintained in individually ventilated cages with a 12-hour light/dark cycle. Food and water were available ad libitum. Panc-1 tumor cells were maintained in vitro at 37° C. in an atmosphere containing 5% CO2 using DMED medium supplemented with 10% fetal bovine serum. Prior to tumor inoculation, cells in the exponential growth phase were harvested and quantified using a cell counter. Panc-1 tumor cells (1×10^7) in 0.2 mL PBS were subcutaneously inoculated into the right flank of each mouse. Randomization was initiated when the average tumor size reached approximately 154.21 mm^3. A total of 9 tumor-bearing mice were enrolled in the study, and these mice were allocated into […] (3 mice per group). Additionally, 3 non-tumor-bearing mice were assigned to the untreated group.
The animals were treated […] via intravenous injection (I.V.) with either a vehicle (10% HP-β-CD) or the vehicle containing the indicated dose of the compound, for approximately 28 days (QD×28 I.V.), or until ethical endpoints were reached (BWL>20%; median tumor volume (MTV)>2000 mm^3; individual TV>3000 mm^3; clinical signs of discomfort). […]
Tumor volume was measured in two dimensions using calipers twice weekly after randomization, and the volume was calculated in mm^3 using the formula: V=(L×W×W)×0.5, where V is the tumor volume, L is the tumor length (the longest tumor dimension), and W is the tumor width (the longest tumor dimension perpendicular to L). […] Tumor growth inhibition (TGI %) was calculated using the formula: TGI %=[1−(Ti/Ci)]×100, where Ti is the median tumor volume in the treatment group on the measurement day, and Ci is the median tumor volume in the control group on the measurement day.

GTP-KRAS-G12D:CRAF, sequence (P01116-2 other isoform, or with tags, fused parts or gaps G12D): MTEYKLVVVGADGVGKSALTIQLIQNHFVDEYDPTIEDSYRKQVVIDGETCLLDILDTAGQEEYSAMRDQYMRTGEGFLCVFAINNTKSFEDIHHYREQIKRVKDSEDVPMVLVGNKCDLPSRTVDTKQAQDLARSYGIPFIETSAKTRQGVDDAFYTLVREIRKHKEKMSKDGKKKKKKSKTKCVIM
GTP-KRAS-G12D:SOS1, sequence (P01116-2 other isoform, or with tags, fused parts or gaps G12D): as above
GTP-KRAS-WT:SOS1, sequence (P01116-2 other isoform, or with tags, fused parts or gaps): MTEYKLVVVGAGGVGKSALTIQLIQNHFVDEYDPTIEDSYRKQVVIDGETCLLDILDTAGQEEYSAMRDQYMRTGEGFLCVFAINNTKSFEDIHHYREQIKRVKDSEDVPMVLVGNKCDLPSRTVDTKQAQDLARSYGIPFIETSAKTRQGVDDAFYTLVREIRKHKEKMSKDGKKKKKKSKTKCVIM

Row | SMILES | IC50 (GTP-KRAS-WT:SOS1) [nM] | IC50 (GTP-KRAS-G12D:CRAF) [nM] | IC50 (GTP-KRAS-G12D:SOS1) [nM] | IC50 (GTP-KRAS-WT:SOS1; dihydrochloride) [nM] | IC50 (GTP-KRAS-G12D:CRAF; dihydrochloride) [nM] | IC50 (GTP-KRAS-G12D:SOS1; dihydrochloride) [nM] | TGI (%) Day 28 ([1]; Panc-1 KRASG12D in Nu/Nu, 10 mg/kg QD IV, Day 28) [%] | BWL (%) Day 14 ([1]; mouse, in vivo, iv, 10 mg/kg) [%] | BWL (%) Day 28 ([1]; mouse, in vivo, iv, 10 mg/kg) [%]
1 | Oc1cc(Cl)c2c(c1)C1(CC2)CCc2c(nc(OC[C@@]34CCCN3C[C@H](F)C4)nc2N2CC3CCC(C2)N3)C1F (single isomer, unassigned) [Compound 8d, (1R or 1S, 8'S or 8′R)-4′-((1R,5S)-3,8-diazabicyclo[3.2.1]octan-3-yl)-4-chloro-8′-fluoro-2′-(((2R,7aS)-2-fluorotetrahydro-1H-pyrrolizin-7a(5H)-yl)methoxy)-2,3,5′,8′-tetrahydro-6′H-spiro[indene-1,7′-quinazolin]-6-ol dihydrochloride] | 4750 | 491 | 115 | – | – | – | – | – | –
2 | CC1CC2(CCc3c(nc(OC[C@@]45CCCN4C[C@H](F)C5)nc3N3C[C@H]4CC[C@@H](C3)N4)C2)c2cc(O)cc(Cl)c21 (single isomer, unassigned) [Compound 7aa, (1R or 1S, 3R or 3S)-4′-((1R,5S)-3,8-diazabicyclo[3.2.1]octan-3-yl)-4-chloro-2′-(((2R,7aS)-2-fluorotetrahydro-1H-pyrrolizin-7a(5H)-yl)methoxy)-3-methyl-2,3,5′,8′-tetrahydro-6′H-spiro[indene-1,7′-quinazolin]-6-ol dihydrochloride] | – | – | – | 233 | 16.4 | 9.95 | – | – | –
3 | CCc1cccc2cc(O)cc(-c3c(F)c4c5c(nc(OC[C@@]67CCCN6C[C@H](F)C7)nc5c3F)N3CC5CCC(N5)C3CO4)c12 (single isomer, unassigned) [Compound 5a, (S or R)-4-((5aS,6S,9R)-1,3-Difluoro-13-(((2R,7aS)-2-fluorotetrahydro-1H-pyrrolizin-7a(5H)-yl)methoxy)-5a,6,7,8,9,10-hexahydro-5H-6,9-epiminoazepino[2′,1′:3,4][1,4]oxazepino[5,6,7-de]quinazolin-2-yl)-5-ethylnaphthalen-2-ol dihydrochloride] | 11.4 | 5.81 | 14.5 | – | – | – | 96 | −0.77 | −1.58
4 | Oc1cc(Cl)c2c(c1)C1(CC2)CCc2c(nc(OC[C@@]34CCCN3C[C@H](F)C4)nc2N2CC3CCC(C2)N3)C1 (single isomer, unassigned) [Compound 2a, (S or R)-4′-((1R,5S)-3,8-Diazabicyclo[3.2.1]octan-3-yl)-4-chloro-2′-((2R,7aS)-2-fluorotetrahydro-1H-pyrrolizin-7a(5H)-ylmethoxy)-2,3,5′,8′-tetrahydro-6′H-spiro[indene-1,7′-quinazolin]-6-ol dihydrochloride] | 254 | 32.5 | 16.7 | – | – | – | – | – | –

The next lines start with results.

Row | IC50 (GTP-KRAS-WT:SOS1) [nM] | IC50 (GTP-KRAS-G12D:CRAF) [nM] | IC50 (GTP-KRAS-G12D:SOS1) [nM] | IC50 (GTP-KRAS-WT:SOS1; dihydrochloride) [nM] | IC50 (GTP-KRAS-G12D:CRAF; dihydrochloride) [nM] | IC50 (GTP-KRAS-G12D:SOS1; dihydrochloride) [nM] | SMILES | TGI (%) Day 28 ([1]; Panc-1 KRASG12D in Nu/Nu, 10 mg/kg QD IV, Day 28) [%] | BWL (%) Day 14 ([1]; mouse, in vivo, iv, 10 mg/kg) [%] | BWL (%) Day 28 ([1]; mouse, in vivo, iv, 10 mg/kg) [%]
5 | 4100 | 333 | 45.6 | – | – | – | F[C@H]1CN2CCC[C@@]2(COc2nc3c(c(N4CC5CCC(C4)N5)n2)CCC2(CCc4c(Cl)cccc42)C3)C1 (single isomer, unassigned) [Compound 1a, (S or R)-4′-((1R,5S)-3,8-Diazabicyclo[3.2.1]octan-3-yl)-4-chloro-2′-((2R,7aS)-2-fluorotetrahydro-1H-pyrrolizin-7a(5H)-ylmethoxy)-2,3,5′,8′-tetrahydro-6′H-spiro[indene-1,7′-quinazoline]dihydrochloride] | – | – | –
6 | 61.2 | 19.5 | 13.5 | – | – | – | Oc1cc(Cl)c2c(c1)C1(CC2)CCc2c(nc(OC[C@@]34CCCN3C[C@H](F)C4)nc2N2CC3CCC(C2)N3)C1F (single isomer, unassigned) [Compound 8a, (1S or 1R,8'S or 8′R)-4′-((1R,5S)-3,8-Diazabicyclo[3.2.1]octan-3-yl)-4-chloro-8′-fluoro-2′-(((2R,7aS)-2-fluorotetrahydro-1H-pyrrolizin-7a(5H)-yl)methoxy)-2,3,5′,8′-tetrahydro-6′H-spiro[indene-1,7′-quinazolin]-6-ol dihydrochloride] | – | – | –

Reference: US20250197424A1, “QUINOLINE COMPOUND AND USE THEREOF” (SHANGHAI PHARMACEUTICALS HOLDING CO., LTD., priority 2022, published 2025)
